Patent US20260273074A1, “FERRITIN-TARGETING PROTACS AND METHODS OF INDUCING PYROPTOSIS” (Wisconsin Alumni Research Foundation, priority 2023, published 2026)
Where a SMILES comes first, the peptide text is derived from it. The star is where a group is joined. Cbz = O=C(OCc1ccccc1)*; CH2F = FC*

Legend:
B16F10 cells [1] = test: Cell viability evaluation by CCK-8 assay; settings: B16F10 cells, DeFer-2 5 μM; DFOM 25 μM, Z-VAD 10 μM, NSCI 0.1 μM, VX-765 10 μM
Description: Cell viability evaluation: The cell viability of B16F10 cells treated with ferritin degraders with or without various inhibitors was evaluated by CCK-8 assay. Briefly, 5×10^3 cells were seeded in 96-well plates and cultured for 24 h for attachment. Then the medium in the corresponding wells, except the control, was replaced with 100 μL of medium containing the indicated degrader formulations with concentrations of 0.008, 0.04, 0.2, 1, and 5 μM. After incubation for 24 or 48 h, CCK-8 reagent was added and interacted with cells at 37° C. for 1 h. The absorbance was measured by a microplate reader (Infinite M Plex) at the detection wavelength of 450 nm.
For blocking assays with Z-VAD, NSCI, and VX-765, 5×10^3 cells were seeded in 96-well plates and cultured 24 h for attachment. Then the medium in the corresponding wells, except the control, was replaced with 100 μL of medium containing Z-VAD (10 μM), NSCI (0.1 μM), or VX-765 (10 μM). […] Following another 24-h incubation, CCK-8 reagents were added and interacted with cells at 37° C. for 1 h. The absorbance was measured by a microplate reader (Infinite® M Plex) at the detection wavelength of 450 nm. For blocking assays with DFOM, 5×10^3 cells were seeded in 96-well plates and cultured 24 h for attachment. […] Following another 20-h incubation, CCK-8 reagents were added and interacted with cells at 37° C. for 1 h. The absorbance was measured by a microplate reader (Infinite® M Plex) at the detection wavelength of 450 nm.

B16F10 cells [2] = test: LDH release assay; type: cell-based, murine; settings: inhibitor pretreatment 4 h, DeFer-2 5 μM, NSCI 0.1 μM, VX-765 10 μM
Description: After incubation for 24 h, the cell samples were used to measure LDH release according to the manufacturer's instructions of CytoScan™ LDH Cytotoxicity Assay kit from G-Biosciences (St. Louis, MO, USA).
Following another 24-h incubation, the cell samples were used to measure LDH release according to the manufacturer's instructions of CytoScan™ LDH Cytotoxicity Assay kit from G-Biosciences (St. Louis, MO, USA).

ferritin (Mus musculus) = test system: T1, ferritin (Mus musculus); test: Western blot of ferritin expression (ferritin degradation) in B16F10 cells; type: cell-based, murine; settings: Epox 1 μM pretreatment 1 h; for effect on DeFer-2-mediated ferritin degradation: DeFer-2 0.5 μM 12 h, VHL ligand 50 μM in excess
T1 construct: ferritin expression levels in B16F10 cells were evaluated; endogenous in cells; host or cells: B16F10 (murine melanoma)
Description: Western blot analysis: After various treatments, ferritin expression levels in B16F10 cells were evaluated to investigate the DeFer-2-mediated ferritin degradation. Briefly, B16F10 cells were seeded in 6-well culture plates (5×10^4 cells per well) and cultured for 24 h. Then the medium in the corresponding wells except the negative control was replaced with 1 mL of medium containing ferritin degraders, albumin nanoparticles, the epimer formulations, the combination of VHL ligand and oleic acid, or the combination of the degrader and VHL ligand at the indicated concentrations. […] The lysates were centrifuged at 12,000 rpm for 10 min at 4° C., followed by quantification of the total proteins in the supernatant through the bicinchoninic acid assay (BCA) assay. Afterward, the proteins in the supernatant were mixed with the loading buffer and heated at 95° C. for 15 min. Equal amounts of proteins from different samples were loaded into 15% SDS-polyacrylamide gel (20 μg protein per lane) to separate target proteins. After separation, proteins were transferred to polyvinylidene fluoride (PVDF) membranes before the membranes were blocked with 5% nonfat milk in PBST. Then proteins were incubated with primary antibodies overnight at 4° C., followed by the incubation with the goat-anti-rabbit IgG H&L (HRP) secondary antibodies at room temperature for 2 h. Finally, the bands were detected with electrochemiluminescence (ECL) western blot substrate for imaging, and ImageJ software was used for quantification.

[3] = molecular target: T2, apoferritin from equine spleen (Equus caballus, UniProt P02791); test: Isothermal titration calorimetry (ITC) binding to ferritin
T2 construct: the apoferritin from equine spleen (A3660, Sigma-Aldrich) that is not combined with iron was used; purchased Sigma-Aldrich A3660; host or cells: equine spleen (tissue-derived)
T2 sequence (P02791 2-175 limits assumed): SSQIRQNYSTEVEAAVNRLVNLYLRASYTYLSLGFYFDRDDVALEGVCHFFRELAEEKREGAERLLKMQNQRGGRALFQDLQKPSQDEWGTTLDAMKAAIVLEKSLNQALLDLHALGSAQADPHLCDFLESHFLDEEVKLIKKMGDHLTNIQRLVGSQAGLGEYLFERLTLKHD
Description: As for the ferritin proteins, the apoferritin from equine spleen (A3660, Sigma-Aldrich) that is not combined with iron was used. Before the ITC test, 1 mL of apoferritin in glycerol solution (50% glycerol and 0.075 M NaCl) was placed in a dialysis bag with a molecular weight cut-off of 3 kDa. The dialysis bags were then immersed in the prepared solution (20 mM Tris-HCl, pH 8.5, and 130 mM NaCl) and stirred at room temperature. The dialysis buffer was changed every 24 h for three times, and the last buffer was collected and 0.05% DMSO was added to serve as the ITC buffer. As for the oleic acid, 12 μM apoferritin in the ITC buffer was placed in the ITC cell, and the syringe was full of 250 μM oleic acid in the same ITC buffer. Besides the first injection with 5 μL of the oleic acid solution, 18 aliquots with 10 μL of the oleic acid solution were titrated into the apoferritin solution with a time interval of 300 s. […] Besides the first injection with 1 μL of the apoferritin solution, 25 aliquots were titrated with a time interval of 300 s. Raw data were corrected for control titrations (the solution in the syringe into the blank ITC buffer in the cell) and integrated using Origin 7.0 (MicroCal). Binding kinetics parameters, including N, Kd, ΔH, and ΔS, were calculated using a single-class binding site model.

cleaved caspase 3 = test: Western blot of cleaved caspase 3 in B16F10 cells; type: cell-based, murine; settings: GSH pretreatment 4 h
Description: (§1) As for the determination of cleaved-GSDME and cleaved-caspase-3, B16F10 cells were seeded in 6-well culture plates (2×10^5 cells per well) and cultured for 24 h. Then the medium in the corresponding wells except the negative control was replaced with 1 mL of medium containing ferritin degraders, albumin nanoparticles, or the degrader with inhibitors at the indicated concentrations. Incubation for another 6 or 8 h was used to test the cleaved-caspase-3, while treatment for another 16 or 20 h was used to test cleaved-GSDME. The following procedures were the same as mentioned above.

GSDME-N = test: Western blot of cleaved N-terminal GSDME (GSDME-N) in B16F10 cells; type: cell-based, murine; settings: GSH pretreatment 4 h
Description: as §1

CCO[C@@H]1OC(=O)C[C@@H]1NC(=O)[C@@H]1CCCN1C(=O)[C@@H](NC(=O)c1ccc(N)c(Cl)c1)C(C)(C)C [VX-765, reference compound]
effect on DeFer-2-induced cytotoxicity / cell death (B16F10 cells [1]): remained unchanged
effect on LDH release caused by DeFer-2 (B16F10 cells [2]): barely affected

CC[C@H](C)[C@H](NC(=O)[C@H]([C@@H](C)CC)N(C)C(C)=O)C(=O)N[C@H](C(=O)N[C@@H](CC(C)C)C(=O)[C@@]1(C)CO1)[C@@H](C)O [Epox, epoxomicin, reference compound]
effect on aDeFer-2-mediated ferritin degradation (ferritin (Mus musculus); B16F10 cells, 0.5 μM, 12 h): compromised the aDeFer-2-mediated ferritin degradation
effect on DeFer-2-mediated ferritin degradation (ferritin (Mus musculus)): inhibited

Cc1ncsc1-c1ccc(CNC(=O)[C@@H]2C[C@@H](O)CN2C(=O)[C@@H](N)C(C)(C)C)cc1.Cl [VHL ligand, (2S,4R)-1-((S)-2-amino-3,3-dimethylbutanoyl)-4-hydroxy-N-(4-(4-methylthiazol-5-yl)benzyl) pyrrolidine-2-carboxamide hydrochloride, reference compound]
effect on DeFer-2-mediated ferritin degradation (ferritin (Mus musculus)): compromised

CCCCCCCC/C=C\CCCCCCCC(=O)O [OA, oleic acid, reference compound]
Kd [3]: 12.8 ± 2.89 µM

N[C@@H](CCC(=O)N[C@@H](CS)C(=O)NCC(=O)O)C(=O)O [GSH, glutathione, reference compound]
effect of pretreatment on DeFer-2-caused caspase 3 activation (cleaved caspase 3): substantially reduced activated caspase 3
effect of pretreatment on DeFer-2-caused GSDME-N generation (GSDME-N): compromised by GSH pretreatment

COC(=O)C[C@H](NC(=O)[C@H](C)NC(=O)[C@@H](NC(=O)OCc1ccccc1)C(C)C)C(=O)CF [Z-VAD, Z-VAD(OMe)-FMK, reference compound] (Cbz-Val-Ala-Asp(OMe)-CH2F)
effect on DeFer-2-induced cytotoxicity / cell death (B16F10 cells [1]): compromised
